Calls of active or inactive are those of the source. No cut-off for these calls is given here.
Tests used:
[1] = test system: Protein cereblon/GTPase KRas (Homo sapiens), P01116+Q96SW2 [G12D]; experiment: PROTAC activity at CRBN/KRAS G12D mutant in human ASPC1 cells assessed as induction of KRAS G12D mutant degradation at 5 nM measured after 24 hrs by immunoblot analysis relative to control; assay type: cell-based
[2] = test system: Protein cereblon/GTPase KRas (Homo sapiens), P01116+Q96SW2 [G12D]; experiment: PROTAC activity at CRBN/KRAS G12D mutant in human ASPC1 cells assessed as induction of KRAS G12D mutant degradation at 50 nM measured after 24 hrs by immunoblot analysis relative to control; assay type: cell-based
[3] = test system: Protein cereblon/GTPase KRas (Homo sapiens), P01116+Q96SW2 [G12D]; experiment: PROTAC activity at CRBN/KRAS G12D mutant in human ASPC1 cells assessed as induction of KRAS G12D mutant degradation at 1 uM measured after 24 hrs by immunoblot analysis relative to control; assay type: cell-based
[4] = test system: Protein cereblon/GTPase KRas (Homo sapiens), P01116+Q96SW2 [G12D]; experiment: PROTAC activity at CRBN/KRAS G12D mutant in human ASPC1 cells assessed as induction of KRAS G12D mutant degradation at 5 uM measured after 24 hrs by immunoblot analysis relative to control; assay type: cell-based
[5] = test system: Protein cereblon/GTPase KRas (Homo sapiens), P01116+Q96SW2 [G12D]; experiment: PROTAC activity at CRBN/KRAS G12D mutant in human ASPC1 cells assessed as induction of KRAS G12D mutant degradation at 100 nM measured after 24 hrs by immunoblot analysis relative to control; assay type: cell-based
[6] = test system: Protein cereblon/GTPase KRas (Homo sapiens), P01116+Q96SW2 [G12D]; experiment: PROTAC activity at CRBN/KRAS G12D mutant in human ASPC1 cells assessed as induction of KRAS G12D mutant degradation at 15 nM measured after 24 hrs by immunoblot analysis relative to control; assay type: cell-based
[7] = Inhibition of ERK phosphorylation in human PK-59 cells harbouring KRAS G12D mutant measured after 24 hrs; assay type: cell-based; settings: PK-59, 24 h
[8] = Inhibition of Raf (unknown origin)/GTP loaded KRas G12D mutant interaction preincubated for 15 mins followed by anti-tag1-eu3 and Tag2-XL665 antibody addition and measured for 120 mins by HTRF method; set-up: species or system Homo sapiens
[9] = Antitumor activity against human PK-59 cells xenografted in female Balb/c nude mouse model assessed as tumor growth inhibition at 1.81 mg/kg, iv QW measured after 28 days relative to control; assay type: functional; settings: PK-59, 672 h, time 28 day, read-out: TGI
[10] = Antiproliferative activity against human PK-59 cells harbouring KRAS G12D mutant assessed as inhibition of cell growth measured after 72 hrs by Cell titer glo method; assay type: functional, cell-based; settings: PK-59, 72 h
[11] = Toxicity in female Balb/c nude mouse xenografted with human PK-59 cells assessed as change in body weight at 1.8 mg/kg, iv QW measured after 28 days; assay type: organism-based; settings: in vivo, 672 h, time 28 day
[12] = Inhibition of ERK phosphorylation in human ASPC1 cells harbouring KRAS G12D mutant measured after 24 hrs; assay type: cell-based; settings: ASPC1, 24 h
[13] = test system: ASPC1; experiment: Antiproliferative activity against human ASPC1 cells harbouring KRAS G12D mutant assessed as inhibition of cell growth measured after 72 hrs by Cell titer glo method; assay type: functional, cell-based; settings: ASPC1, 72 h
[14] = Inhibition of ERK phosphorylation in human AGS cells harbouring KRAS G12D mutant measured after 24 hrs; assay type: cell-based
[15] = Antiproliferative activity against human GP2d cells harbouring KRAS G12D mutant assessed as inhibition of cell growth measured after 72 hrs by Cell titer glo method; assay type: functional, cell-based
[16] = test system: AGS; experiment: Antiproliferative activity against human AGS cells harbouring KRAS G12D mutant assessed as inhibition of cell growth measured after 72 hrs by Cell titer glo method; assay type: functional, cell-based
[17] = Inhibition of ERK phosphorylation in human GP2d cells harbouring KRAS G12D mutant measured after 24 hrs; assay type: cell-based
[18] = molecular target: GTPase KRas (Homo sapiens, UniProt P01116, G12D); experiment: Binding affinity to 6 His-tagged GDP-loaded human KRAS G12D mutant assessed as GDP-GTP exchange preincubated for 30 mins followed by GTP addition for 30 mins by HTRF method
[19] = test system: GP2d; experiment: PROTAC activity at CRBN/KRAS G12D mutant in human GP2d cells assessed as induction of KRAS G12D mutant degradation at 0.004 to 250 nM measured after 24 hrs by immunoblot analysis; assay type: cell-based; settings: dose 0.004-250 nM

Sequence of Protein cereblon/GTPase KRas (Homo sapiens), P01116+Q96SW2 [G12D] (P01116 whole entry G12D): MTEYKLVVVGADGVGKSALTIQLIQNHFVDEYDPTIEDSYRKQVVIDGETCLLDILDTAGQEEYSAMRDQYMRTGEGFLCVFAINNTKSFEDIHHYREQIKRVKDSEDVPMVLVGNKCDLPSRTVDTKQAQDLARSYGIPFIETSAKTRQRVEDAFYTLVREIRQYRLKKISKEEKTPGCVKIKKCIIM
Sequence of Protein cereblon/GTPase KRas (Homo sapiens), P01116+Q96SW2 [G12D] (Q96SW2 whole entry partner): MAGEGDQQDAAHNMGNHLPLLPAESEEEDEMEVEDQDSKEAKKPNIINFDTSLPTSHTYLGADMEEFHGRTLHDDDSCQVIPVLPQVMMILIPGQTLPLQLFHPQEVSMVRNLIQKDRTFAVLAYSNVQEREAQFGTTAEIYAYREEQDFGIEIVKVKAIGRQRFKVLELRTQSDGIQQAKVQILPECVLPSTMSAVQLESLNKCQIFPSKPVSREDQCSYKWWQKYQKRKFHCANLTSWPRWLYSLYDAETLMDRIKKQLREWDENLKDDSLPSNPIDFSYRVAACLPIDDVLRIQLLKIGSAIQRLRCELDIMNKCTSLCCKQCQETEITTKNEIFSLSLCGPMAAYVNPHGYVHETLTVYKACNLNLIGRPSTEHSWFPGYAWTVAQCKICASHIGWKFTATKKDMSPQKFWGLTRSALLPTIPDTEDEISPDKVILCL
Sequence of GTPase KRas (P01116 whole entry G12D): as the sequence (P01116 whole entry G12D) above

`C#Cc1c(F)ccc2cc(O)cc(-c3ncc4c(N5CC6CCC(C5)N6)nc(OCC5(CN6CCC7(CC6)CC(N6CCN(c8ccc(N9CCC(=O)NC9=O)cc8)CC6)C7)CC5)nc4c3F)c12` showed an Activity [1] of 6% and an Activity [2] of 2%.

Compound `C#Cc1c(F)ccc2cc(O)cc(-c3ncc4c(N5CC6CCC(C5)N6)nc(OCC5(CN6CCC7(CC6)CC(N6CCC(c8ccc(NC9CCC(=O)NC9=O)cc8F)CC6)C7)CC5)nc4c3F)c12` (stereo not given) has an Activity [1] of 84% and an Activity [2] of 79%.

Compound `C#Cc1c(F)ccc2cc(O)cc(-c3ncc4c(N5CC6CCC(C5)N6)nc(OCC5(CN6CCC7(CC6)CC(N6CCN(c8ccc(NC9CCC(=O)NC9=O)cc8F)CC6)C7)CC5)nc4c3F)c12` (stereo not given) has an Activity [1] of 54% and an Activity [2] of 64%.

`C#Cc1c(F)ccc2cc(O)cc(-c3ncc4c(N5CC6CCC(C5)N6)nc(OCC5(CN6CCC7(CC6)CC(N6CCC(c8ccc9c(c8)C(=O)N(C8CCC(=O)NC8=O)C9=O)CC6)C7)CC5)nc4c3F)c12` (stereo not given) showed an Activity [1] of 37% and an Activity [2] of 59%.

`C#Cc1c(F)ccc2cc(O)cc(-c3ncc4c(N5CC6CCC(C5)N6)nc(OCC5(CN6CCC7(CC6)CC(N6CCN(c8ccc(NC9%10CC(C9)C(=O)NC%10=O)cc8F)CC6)C7)CC5)nc4c3F)c12` showed an Activity [1] of 68% and an Activity [2] of 67%.

`C#Cc1c(F)ccc2cc(O)cc(-c3ncc4c(N5CC6CCC(C5)N6)nc(OCCCN5CCN(C(=O)CN6CCN(c7cccc8c7C(=O)N(C7CCC(=O)NC7=O)C8=O)CC6)CC5)nc4c3F)c12` (stereo not given) showed an Activity [3] of 0%, an Activity [4] of 7% and an Activity [5] of 8%. For the same compound, the Activity [2] was 12%.

In the case of `C#Cc1c(F)ccc2cc(O)cc(-c3ncc4c(N5CC6CCC(C5)N6)nc(OCC5(CN6CCC7(CC6)CCN(c6ccc8c(c6)C(=O)N(C6CCC(=O)NC6=O)C8=O)CC7)CC5)nc4c3F)c12` (stereo not given), the Activity [6] is reported as 32% and the Activity [2] is reported as 57%.

With `C#Cc1c(F)ccc2cc(O)cc(-c3ncc4c(N5CC6CCC(C5)N6)nc(OCC5(CN6CCC7(CC6)CC(N6CCC(c8cccc(C9CCC(=O)NC9=O)c8)CC6)C7)CC5)nc4c3F)c12` (stereo not given) the Activity [1] was -8% and the Activity [2] was -20%.

In the case of `C#Cc1c(F)ccc2cc(O)cc(-c3ncc4c(N5CC6CCC(C5)N6)nc(OCC5(CN6CCC7(CC6)CC(N6CCC(c8ccc(C9CCC(=O)NC9=O)cc8)CC6)C7)CC5)nc4c3F)c12` (stereo not given), the Activity [1] is reported as 32% and the Activity [2] is reported as 81%.

`C#Cc1c(F)ccc2cc(O)cc(-c3ncc4c(N5CC6CCC(C5)N6)nc(OCC5(CN6CCC7(CC6)CC(N6CCN(c8cccc9c8C(=O)N(C8CCC(=O)NC8=O)C9=O)CC6)C7)CC5)nc4c3F)c12` (stereo not given) gave an Activity [1] of 21% and an Activity [2] of 34%.

`C#Cc1c(F)ccc2cc(O)cc(-c3ncc4c(N5CC6CCC(C5)N6)nc(OCC5(CN6CCC7(CC6)CC(N6CCC(c8cccc(N9CCC(=O)NC9=O)c8)CC6)C7)CC5)nc4c3F)c12` gave an Activity [1] of 0% and an Activity [2] of -10%.

For `C#Cc1c(F)ccc2cc(O)cc(-c3ncc4c(N5CC6CCC(C5)N6)nc(OCCCN5CCN(CC(=O)N6CCN(c7ccc8c(c7)C(=O)N(C7CCC(=O)NC7=O)C8=O)CC6)CC5)nc4c3F)c12` (stereo not given), the Activity [3] was 4%, the Activity [4] was 9% and the Activity [5] was -1%. For the same compound, the Activity [2] was 1%.

`C#Cc1c(F)ccc2cc(O)cc(-c3ncc4c(N5CC6CCC(C5)N6)nc(OCC5(CN6CCC7(CC6)CC(N6CCC(c8cccc9c8C(=O)N(C8CCC(=O)NC8=O)C9=O)CC6)C7)CC5)nc4c3F)c12` (stereo not given) gave an Activity [1] of -3% and an Activity [2] of -12%.

In the case of `C#Cc1c(F)ccc2cc(O)cc(-c3ncc4c(N5CC6CCC(C5)N6)nc(OCCCN5CCN(C(=O)CN6CCN(c7ccc8c(c7)C(=O)N(C7CCC(=O)NC7=O)C8=O)CC6)CC5)nc4c3F)c12` (stereo not given), the Activity [3] is reported as 21%, the Activity [4] is reported as 23% and the Activity [5] is reported as 10%. The Activity [2] was 9%.

For `C#Cc1c(F)ccc2cc(O)cc(-c3ncc4c(N5CC6CCC(C5)N6)nc(OCCCN5CCN(CC(=O)N6CCN(c7cccc8c7C(=O)N(C7CCC(=O)NC7=O)C8=O)CC6)CC5)nc4c3F)c12` (stereo not given), the Activity [3] was 7%, the Activity [4] was 7% and the Activity [5] was 0%. It also gave an Activity [2] of 2%.

Compound `C#Cc1c(F)ccc2cc(O)cc(-c3ncc4c(N5CC6CCC(C5)N6)nc(OC[C@@]56CCCN5C[C@H](F)C6)nc4c3F)c12` [MRTX-1133] has an IC50 [7] of 4.2 nM, an IC50 [8] of 1.43 nM and an inhibition in vivo at 1.81 mg/kg [9] of 58.7%. For the same compound, the IC50 [10] was 2.9 nM, the Activity [11] was “Non-toxic” and the IC50 [12] was 20.3 nM. The IC50 [13] was 56.8 nM, the IC50 [14] was 24.7 nM and the IC50 [15] was 0.91 nM. For the same compound, the IC50 [16] was 2.43 nM and the IC50 [17] was 0.87 nM.

Compound `C#Cc1c(F)ccc2cc(O)cc(-c3ncc4c(N5CC6CCC(C5)N6)nc(OCC5(CN6CCN(c7ccc8c(c7)C(=O)N(C7CCC(=O)NC7=O)C8=O)CC6)CC5)nc4c3F)c12` (stereo not given) has an Activity [5] of 58%.

`C#Cc1c(F)ccc2cc(O)cc(-c3ncc4c(N5CC6CCC(C5)N6)nc(OCC5(CN6CCC7(CC6)CC(N6CCN(c8ccc9c(c8)C(=O)N(C8CCC(=O)NC8=O)C9=O)CC6)C7)CC5)nc4c3F)c12` (stereo not given) gave an Activity [1] of 48% and an Activity [2] of 64%.

For `C#Cc1c(F)ccc2cc(O)cc(-c3ncc4c(N5CC6CCC(C5)N6)nc(OCC5(CN6CCN(C(=O)CN7CCN(c8ccc9c(c8)C(=O)N(C8CCC(=O)NC8=O)C9=O)CC7)CC6)CC5)nc4c3F)c12` (stereo not given), the Activity [5] was 40%.

For `C#Cc1c(F)ccc2cc(O)cc(-c3ncc4c(N5CC6CCC(C5)N6)nc(OCC5(CN6CCC7(CC6)CC(N6CCN(c8cc9c(cc8F)c(N8CCC(=O)N(C)C8=O)nn9C)CC6)C7)CC5)nc4c3F)c12`, the IC50 [18] was 4.02 nM and the Activity [19] was “inactive”.

From ChEMBL document CHEMBL6177994 (J Med Chem, 2025)
